The values that follow come from patent publication US20250152585A1, “PHARMACEUTICAL COMPOUND” (Duke Street Bio Limited, priority 2022, published 2025).

Molecules are shown by their SMILES.

The target in one assay is T1, full length N-terminally FLAG-tagged PARP1 (Homo sapiens, UniProt P09874). The assay is described as follows: PARP1 probe displacement HTRF assay. The settings on record: PARP1 over PARP2, ratio Kd (PARP2)/Kd (PARP1), probe displacement HTRF.
T1 sequence (P09874 whole entry): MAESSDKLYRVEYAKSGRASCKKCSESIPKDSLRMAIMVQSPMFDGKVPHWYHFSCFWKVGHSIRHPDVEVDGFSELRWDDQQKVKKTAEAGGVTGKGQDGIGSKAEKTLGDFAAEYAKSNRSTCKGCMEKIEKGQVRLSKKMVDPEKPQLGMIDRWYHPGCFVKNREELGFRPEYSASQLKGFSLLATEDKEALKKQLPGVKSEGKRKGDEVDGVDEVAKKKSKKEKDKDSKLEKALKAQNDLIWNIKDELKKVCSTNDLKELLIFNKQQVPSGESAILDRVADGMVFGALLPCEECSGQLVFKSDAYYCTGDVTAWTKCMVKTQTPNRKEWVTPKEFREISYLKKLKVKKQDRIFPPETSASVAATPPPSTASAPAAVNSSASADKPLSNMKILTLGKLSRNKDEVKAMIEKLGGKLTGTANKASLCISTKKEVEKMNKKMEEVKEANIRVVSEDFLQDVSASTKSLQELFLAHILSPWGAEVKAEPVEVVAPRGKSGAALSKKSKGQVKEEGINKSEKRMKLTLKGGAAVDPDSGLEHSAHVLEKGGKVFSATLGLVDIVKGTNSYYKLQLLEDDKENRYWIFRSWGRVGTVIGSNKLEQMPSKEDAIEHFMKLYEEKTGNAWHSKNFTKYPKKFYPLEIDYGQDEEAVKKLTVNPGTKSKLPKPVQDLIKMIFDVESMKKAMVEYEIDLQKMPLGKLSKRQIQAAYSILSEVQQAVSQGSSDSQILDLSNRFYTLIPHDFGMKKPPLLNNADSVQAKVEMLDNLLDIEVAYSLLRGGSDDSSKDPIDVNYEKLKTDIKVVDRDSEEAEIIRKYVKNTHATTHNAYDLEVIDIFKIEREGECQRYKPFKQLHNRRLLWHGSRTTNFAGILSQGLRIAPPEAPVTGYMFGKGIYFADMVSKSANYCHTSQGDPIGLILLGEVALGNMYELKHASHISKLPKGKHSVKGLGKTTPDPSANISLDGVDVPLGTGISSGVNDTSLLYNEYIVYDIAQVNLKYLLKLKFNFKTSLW
Turning to `CCc1cc(C)c(C2CCN(C3CCN(c4ccc(C(=O)NC)nc4)CC3)C2)[nH]c1=O` (single isomer, unassigned) [Compound 363b], the Selectivity entry is “+++ (+++ indicate a value of at least 100)”.

`CCc1ccc(C2CCN(C3CCN(c4ccc(C(=O)NC)cc4F)CC3)C2)[nH]c1=O` (single isomer, unassigned) [Compound 366b]: the Selectivity entry is listed as “++ (++ indicates a value of 50 to less than 100)”.

For the compound `CNC(=O)c1ccc(N2CCC(N3CCC(c4[nH]c(=O)c5cc(F)ccc5c4F)C3)CC2)cn1` (single isomer, unassigned) [Compound 370a], the Selectivity entry is listed as “+++ (+++ indicate a value of at least 100)”.

With `CNC(=O)c1ccc(N2CCC(N3CCC(c4[nH]c(=O)c5cc(F)ccc5c4F)C3)CC2)cn1` (single isomer, unassigned) [Compound 370b], the Selectivity result is recorded as “++ (++ indicates a value of 50 to less than 100)”.

For `CNC(=O)c1ccc(N2CCC(N3CCC(c4cc5cccc(F)c5c(=O)[nH]4)C3)CC2)c(F)c1` (single isomer, unassigned) [Compound 371a], the Selectivity entry is recorded as “+++ (+++ indicate a value of at least 100)”.

On to `CNC(=O)c1ccc(N2CCC(N3CCC(c4cc5cccc(F)c5c(=O)[nH]4)C3)CC2)c(F)c1` (single isomer, unassigned) [Compound 371b], for which the Selectivity entry was “++ (++ indicates a value of 50 to less than 100)”.

For the compound `O=C(NC1CC1)c1ccc(N2CCC(N3CCC(c4cc5ncc(F)cc5c(=O)[nH]4)C3)CC2)cn1` (single isomer, unassigned) [Compound 372a], the Selectivity result is on record as “+ (+ indicates a value of 10 to less than 50)”.

Take `O=C(NC1CC1)c1ccc(N2CCC(N3CCC(c4cc5ncc(F)cc5c(=O)[nH]4)C3)CC2)cn1` (single isomer, unassigned) [Compound 372b]: the Selectivity result is recorded as “+++ (+++ indicate a value of at least 100)”.

Regarding `O=c1[nH]c(C2CCN(C3CCN(c4ccc(OC(F)F)nc4)CC3)C2)cc2ccc(F)cc12` (single isomer, unassigned) [Compound 374a], the Selectivity entry was “+ (+ indicates a value of 10 to less than 50)”.

As for `O=c1[nH]c(C2CCN(C3CCN(c4ccc(OC(F)F)nc4)CC3)C2)cc2ccc(F)cc12` (single isomer, unassigned) [Compound 374b], the Selectivity result is reported as “++ (++ indicates a value of 50 to less than 100)”.

Still in this assay, the particulars now being: read-out: PARP1 HTRF; binned Kd, probe displacement HTRF.
As to `CCc1cc(C)c(C2CCN(C3CCN(c4ccc(C(=O)NC)nc4)CC3)C2)[nH]c1=O` (single isomer, unassigned) [Compound 363b], the Kd is less than 10 nM.

Take `CCc1ccc(C2CCN(C3CCN(c4ccc(C(=O)NC)cc4F)CC3)C2)[nH]c1=O` (single isomer, unassigned) [Compound 366b]: the Kd was less than 10 nM.

`CNC(=O)c1ccc(N2CCC(N3CCC(c4[nH]c(=O)c5cc(F)ccc5c4F)C3)CC2)cn1` (single isomer, unassigned) [Compound 370a]: the Kd was less than 10 nM.

`CNC(=O)c1ccc(N2CCC(N3CCC(c4[nH]c(=O)c5cc(F)ccc5c4F)C3)CC2)cn1` (single isomer, unassigned) [Compound 370b]: the Kd was less than 10 nM.

As for `CNC(=O)c1ccc(N2CCC(N3CCC(c4cc5cccc(F)c5c(=O)[nH]4)C3)CC2)c(F)c1` (single isomer, unassigned) [Compound 371a], the Kd was less than 10 nM.

For the compound `CNC(=O)c1ccc(N2CCC(N3CCC(c4cc5cccc(F)c5c(=O)[nH]4)C3)CC2)c(F)c1` (single isomer, unassigned) [Compound 371b], the Kd was 10 to 100 nM.

Regarding `O=C(NC1CC1)c1ccc(N2CCC(N3CCC(c4cc5ncc(F)cc5c(=O)[nH]4)C3)CC2)cn1` (single isomer, unassigned) [Compound 372a], the Kd is less than 10 nM.

On to `O=C(NC1CC1)c1ccc(N2CCC(N3CCC(c4cc5ncc(F)cc5c(=O)[nH]4)C3)CC2)cn1` (single isomer, unassigned) [Compound 372b], for which the Kd is less than 10 nM.

For the compound `O=c1[nH]c(C2CCN(C3CCN(c4ccc(OC(F)F)nc4)CC3)C2)cc2ccc(F)cc12` (single isomer, unassigned) [Compound 374a], the Kd was in the range of 10 to 100 nM.

For `O=c1[nH]c(C2CCN(C3CCN(c4ccc(OC(F)F)nc4)CC3)C2)cc2ccc(F)cc12` (single isomer, unassigned) [Compound 374b], the Kd was less than 10 nM.

A further assay deals with T2, N-terminally FLAG-tagged PARP2 (amino acids 1-583) (Homo sapiens, UniProt Q9UGN5).
T2 construct: N-terminally FLAG-tagged PARP2 (amino acids 1-583)
T2 sequence (Q9UGN5 whole entry, the tested form may be a part): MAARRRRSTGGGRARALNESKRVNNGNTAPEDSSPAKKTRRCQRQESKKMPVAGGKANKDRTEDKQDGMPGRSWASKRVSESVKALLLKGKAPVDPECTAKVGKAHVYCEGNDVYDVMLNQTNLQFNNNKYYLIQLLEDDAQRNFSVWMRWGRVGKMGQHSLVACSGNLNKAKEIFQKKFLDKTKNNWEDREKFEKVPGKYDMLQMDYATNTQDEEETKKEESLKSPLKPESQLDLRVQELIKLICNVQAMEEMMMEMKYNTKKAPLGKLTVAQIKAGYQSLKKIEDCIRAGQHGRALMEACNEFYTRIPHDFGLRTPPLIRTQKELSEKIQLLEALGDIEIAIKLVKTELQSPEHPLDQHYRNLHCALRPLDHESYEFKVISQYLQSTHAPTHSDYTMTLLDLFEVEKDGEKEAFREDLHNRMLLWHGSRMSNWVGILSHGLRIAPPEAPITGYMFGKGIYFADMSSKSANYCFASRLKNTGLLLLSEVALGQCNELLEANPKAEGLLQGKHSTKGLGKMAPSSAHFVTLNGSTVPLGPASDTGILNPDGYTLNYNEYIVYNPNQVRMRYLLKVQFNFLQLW
In words: PARP2 probe displacement HTRF assay. To be noted: binned Kd, probe displacement HTRF. The format is binding. How it is done: Data analysis was performed identical as for PARP1.
`CCc1cc(C)c(C2CCN(C3CCN(c4ccc(C(=O)NC)nc4)CC3)C2)[nH]c1=O` (single isomer, unassigned) [Compound 363b] displayed a Kd of 1000 to 10000 nM.

For the compound `CCc1ccc(C2CCN(C3CCN(c4ccc(C(=O)NC)cc4F)CC3)C2)[nH]c1=O` (single isomer, unassigned) [Compound 366b], the Kd fell in the range of 100 to 1000 nM.

Compound `CNC(=O)c1ccc(N2CCC(N3CCC(c4[nH]c(=O)c5cc(F)ccc5c4F)C3)CC2)cn1` (single isomer, unassigned) [Compound 370a] showed a Kd of 100 to 1000 nM.

The compound `CNC(=O)c1ccc(N2CCC(N3CCC(c4[nH]c(=O)c5cc(F)ccc5c4F)C3)CC2)cn1` (single isomer, unassigned) [Compound 370b] yielded a Kd of 10 to 100 nM.

In the case of `CNC(=O)c1ccc(N2CCC(N3CCC(c4cc5cccc(F)c5c(=O)[nH]4)C3)CC2)c(F)c1` (single isomer, unassigned) [Compound 371a], the Kd fell in the range of 10 to 100 nM.

As for `CNC(=O)c1ccc(N2CCC(N3CCC(c4cc5cccc(F)c5c(=O)[nH]4)C3)CC2)c(F)c1` (single isomer, unassigned) [Compound 371b], the Kd was 1000 to 10000 nM.

Compound `O=C(NC1CC1)c1ccc(N2CCC(N3CCC(c4cc5ncc(F)cc5c(=O)[nH]4)C3)CC2)cn1` (single isomer, unassigned) [Compound 372a] yielded a Kd of 100 to 1000 nM.

`O=C(NC1CC1)c1ccc(N2CCC(N3CCC(c4cc5ncc(F)cc5c(=O)[nH]4)C3)CC2)cn1` (single isomer, unassigned) [Compound 372b] came in with a Kd of 10 to 100 nM.

In the case of `O=c1[nH]c(C2CCN(C3CCN(c4ccc(OC(F)F)nc4)CC3)C2)cc2ccc(F)cc12` (single isomer, unassigned) [Compound 374a], the Kd fell in the range of 100 to 1000 nM.

Compound `O=c1[nH]c(C2CCN(C3CCN(c4ccc(OC(F)F)nc4)CC3)C2)cc2ccc(F)cc12` (single isomer, unassigned) [Compound 374b] showed a Kd of 10 to 100 nM.

The next assay concerns the target T1, full length N-terminally FLAG-tagged PARP1. In words: PARP1 biochemical DELFIA assay (auto-PARylation). Further details: recombinant full length human N-terminally FLAG-tagged PARP1. The settings on record: binned IC50, biochemical auto-PARylation assay.
As for `CCc1cc(C)c(C2CCN(C3CCN(c4ccc(C(=O)NC)nc4)CC3)C2)[nH]c1=O` (single isomer, unassigned) [Compound 363b], the IC50 was less than 10 nM.

With `CCc1ccc(C2CCN(C3CCN(c4ccc(C(=O)NC)cc4F)CC3)C2)[nH]c1=O` (single isomer, unassigned) [Compound 366b], the IC50 was less than 10 nM.

Consider `CNC(=O)c1ccc(N2CCC(N3CCC(c4[nH]c(=O)c5cc(F)ccc5c4F)C3)CC2)cn1` (single isomer, unassigned) [Compound 370a], for which the IC50 was less than 10 nM.

Consider `CNC(=O)c1ccc(N2CCC(N3CCC(c4[nH]c(=O)c5cc(F)ccc5c4F)C3)CC2)cn1` (single isomer, unassigned) [Compound 370b], for which the IC50 is less than 10 nM.

`CNC(=O)c1ccc(N2CCC(N3CCC(c4cc5cccc(F)c5c(=O)[nH]4)C3)CC2)c(F)c1` (single isomer, unassigned) [Compound 371a]: the IC50 was less than 10 nM.

Regarding `CNC(=O)c1ccc(N2CCC(N3CCC(c4cc5cccc(F)c5c(=O)[nH]4)C3)CC2)c(F)c1` (single isomer, unassigned) [Compound 371b], the IC50 was 10 to 100 nM.

For the compound `O=C(NC1CC1)c1ccc(N2CCC(N3CCC(c4cc5ncc(F)cc5c(=O)[nH]4)C3)CC2)cn1` (single isomer, unassigned) [Compound 372a], the IC50 is less than 10 nM.

As for `O=C(NC1CC1)c1ccc(N2CCC(N3CCC(c4cc5ncc(F)cc5c(=O)[nH]4)C3)CC2)cn1` (single isomer, unassigned) [Compound 372b], the IC50 is less than 10 nM.

As for `O=c1[nH]c(C2CCN(C3CCN(c4ccc(OC(F)F)nc4)CC3)C2)cc2ccc(F)cc12` (single isomer, unassigned) [Compound 374a], the IC50 fell in the range of 10 to 100 nM.

`O=c1[nH]c(C2CCN(C3CCN(c4ccc(OC(F)F)nc4)CC3)C2)cc2ccc(F)cc12` (single isomer, unassigned) [Compound 374b]: the IC50 was less than 10 nM.

The term IC50 denotes the concentration that inhibits the measured activity by half.
